Test results published in ChEMBL document CHEMBL5376009 (RSC Med Chem, 2024).

How the values were obtained:
[1] = tested on: Influenza A virus; test: Antiviral activity against influenza A virus H1N1,A/WSN/1933 infected in MDCK cells assessed as reduction in plaque formation incubated for 72 hrs by crystal violet staining based analysis; type: functional, organism-based; conditions: H1N1,A/WSN/1933, MDCK
[2] = tested on: Influenza A virus; test: Antiviral activity against influenza A virus H5N1,A/Vietnam/1194/2004 infected in MDCK cells assessed as reduction in plaque formation incubated for 72 hrs by crystal violet staining based analysis; type: functional, organism-based; conditions: H5N1,A/Vietnam/1194/2004, MDCK
[3] = Cytotoxicity against MDCK cells assessed as reduction in cell viability measured after 72 hrs by MTT assay; type: toxicity, cell-based, Canis lupus familiaris; conditions: dog
[4] = tested on: Influenza A virus; test: Antiviral activity against influenza A virus A/WSN/1933 (H1N1) infected in MDCK cells assessed as reduction in cytopathic effect by fluorescence based analysis; type: functional, organism-based
[5] = Cytotoxicity against MDCK cells assessed as reduction in cell viability measured after 72 hrs by fluorescence based assay; type: toxicity, Canis lupus familiaris; conditions: dog
[6] = tested on: Influenza A virus; test: Antiviral activity against influenza A virus […], A/WSN/33; type: functional, organism-based
[7] = tested on: Influenza A virus; test: Antiviral activity against influenza A virus H1N1, A/PR/8/34; type: functional, organism-based
[8] = tested on: Influenza A virus; test: Antiviral activity against influenza A virus H1N1, A/California/7/2009; type: functional, organism-based
[9] = Cytotoxicity against MDCK cells assessed as reduction in cell viability; type: toxicity, cell-based, Canis lupus familiaris; conditions: dog
[10] = tested on: Influenza A virus; test: Antiviral activity against Influenza A virus A/California/04/2009 (H1N1) infected in MDCK cells pretreated with cell for 30 mins followed by viral infection and measured for 72 hrs by luminescence based assay; type: functional, organism-based
[11] = tested on: Influenza A virus; test: Antiviral activity against Influenza A virus A/Vietnam/1203/2004 (H5N1) infected in MDCK cells pretreated with cell for 30 mins followed by viral infection and measured for 72 hrs by luminescence based assay; type: functional, organism-based
[12] = Selectivity index, ratio of IC50 for cytotoxicity against MDCK cells to EC50 for antiviral activity Influenza A virus A/California/04/2009 (H1N1) infected in MDCK cells; type: toxicity, cell-based; conditions: dog, read-out: Selectivity Index
[13] = Selectivity index, ratio of IC50 for cytotoxicity against MDCK cells to EC50 for antiviral activity Influenza A virus A/Vietnam/1203/2004 (H5N1) infected in MDCK cells; type: toxicity, cell-based; conditions: dog, read-out: Selectivity Index
[14] = tested on: Influenza A virus; test: Antiviral activity against Influenza A virus A/PR/8/34 (H1N1) infected in human A549 cells pretreated with cell for 3 hrs followed by viral infection and measured for 24 hrs; type: functional, organism-based
[15] = Cytotoxicity against human A549 cells incubated for 48 hrs by neutral red uptake assay; type: toxicity, cell-based
[16] = tested on: A549; test: Cytotoxicity against human A549 cells incubated for 48 hrs by cell Titer-Glo assay; type: functional
[17] = biological target: Phosphatidylinositol 4-phosphate 3-kinase C2 domain-containing subunit beta (Homo sapiens, UniProt O00750); test: Inhibition of PIK3C2beta (unknown origin) by KINOMEscan method
[18] = tested on: Influenza A virus; test: Antiviral activity against Influenza A virus A/WSN/33 (H1N1) infected in human A549 cells pretreated with cell for 2 hrs followed by viral infection for 1 hrs by plaque assay; type: functional, organism-based
[19] = tested on: Influenza A virus; test: Antiviral activity against Influenza A virus A/Vietnam/1203/04 (H5N1) HALo infected in human A549 cells pretreated with cell for 2 hrs followed by viral infection for 1 hrs by plaque assay; type: functional, organism-based
[20] = tested on: Influenza A virus; test: Antiviral activity against Influenza A virus A/Panama/2007/99 (H3N2) infected in human A549 cells pretreated with cell for 2 hrs followed by viral infection for 1 hrs by plaque assay; type: functional, organism-based
[21] = tested on: Hepatitis C virus; test: Antiviral activity against Hepatitis C virus infected in human Huh7.5 cells pretreated with cell for 2 hrs followed by viral infection for 1 hrs by plaque assay; type: functional, organism-based, Hepacivirus hominis
[22] = tested on: rhinovirus B14; test: Antiviral activity against Human rhinovirus 14 infected in human HeLa Ohio cells pretreated with cell for 2 hrs followed by viral infection for 1 hrs by plaque assay; type: functional, organism-based; conditions: Rhinovirus B
[23] = Cytotoxicity against MDCK cells; type: toxicity, cell-based, Canis lupus familiaris; conditions: dog
[24] = tested on: Influenza A virus; test: Antiviral activity against Influenza A virus A/PR/8/34 (H1N1); type: functional, organism-based
[25] = tested on: Influenza A virus; test: Antiviral activity against Influenza A virus A/Brisbane/10/2007 (H3N2); type: functional, organism-based
[26] = tested on: Influenza B virus; test: Antiviral activity against Influenza B virus B/Yamagata; type: functional, organism-based
[27] = tested on: Influenza B virus; test: Antiviral activity against Influenza B virus B/Victoria; type: functional, organism-based
[28] = tested on: Influenza A virus; test: Antiviral activity against influenza A virus A/WSN/33 (H1N1) infected in MDCK cells assessed as reduction in cytopathic effect incubated for 48 hrs by crystal violet staining based plaque assay; type: functional, organism-based
[29] = tested on: Influenza A virus; test: Antiviral activity against influenza A virus A/PuertoRico/8/1934 (H1N1) infected in MDCK cells assessed as reduction in cytopathic effect incubated for 48 hrs by crystal violet staining based plaque assay; type: functional, organism-based
[30] = tested on: Influenza A virus; test: Antiviral activity against influenza A virus A/Sydney/5/1997 (H3N2) infected in MDCK cells assessed as reduction in cytopathic effect incubated for 48 hrs by crystal violet staining based plaque assay; type: functional, organism-based
[31] = tested on: Influenza A virus; test: Antiviral activity against influenza A virus A/duck/Hokkaido/Vac-3/2007 (H5N1) infected in MDCK cells assessed as reduction in cytopathic effect incubated for 48 hrs by crystal violet staining based plaque assay; type: functional, organism-based
[32] = Cytotoxicity against MDCK cells assessed as reduction in cell viability measured after 48 hrs by WST-1 assay; type: toxicity, cell-based, Canis lupus familiaris; conditions: dog
[33] = Cytotoxicity against MDCK cells by MTS assay; type: toxicity, cell-based, Canis lupus familiaris; conditions: dog
[34] = tested on: Influenza A virus; test: Antiviral activity against influenza A virus A/Guangdong/1/2009 (H1N1) infected in MDCK cells by plaque assay; type: functional, organism-based
[35] = tested on: Influenza A virus; test: Antiviral activity against influenza A virus A/PR/8/34 (H1N1) infected in MDCK cells by plaque assay; type: functional, organism-based
[36] = tested on: Influenza A virus; test: Antiviral activity against influenza A virus A/Aichi/2/68 (H3N2) infected in MDCK cells by plaque assay; type: functional, organism-based
[37] = tested on: A549; test: Cytotoxicity against human A549 cells by MTS assay; type: functional
[38] = tested on: HEK-293T; test: Cytotoxicity against human HEK293T cells by MTS assay; type: functional

Phosphatidylinositol 4-phosphate 3-kinase C2 domain-containing subunit beta, sequence (O00750 whole entry, the tested form may be a part): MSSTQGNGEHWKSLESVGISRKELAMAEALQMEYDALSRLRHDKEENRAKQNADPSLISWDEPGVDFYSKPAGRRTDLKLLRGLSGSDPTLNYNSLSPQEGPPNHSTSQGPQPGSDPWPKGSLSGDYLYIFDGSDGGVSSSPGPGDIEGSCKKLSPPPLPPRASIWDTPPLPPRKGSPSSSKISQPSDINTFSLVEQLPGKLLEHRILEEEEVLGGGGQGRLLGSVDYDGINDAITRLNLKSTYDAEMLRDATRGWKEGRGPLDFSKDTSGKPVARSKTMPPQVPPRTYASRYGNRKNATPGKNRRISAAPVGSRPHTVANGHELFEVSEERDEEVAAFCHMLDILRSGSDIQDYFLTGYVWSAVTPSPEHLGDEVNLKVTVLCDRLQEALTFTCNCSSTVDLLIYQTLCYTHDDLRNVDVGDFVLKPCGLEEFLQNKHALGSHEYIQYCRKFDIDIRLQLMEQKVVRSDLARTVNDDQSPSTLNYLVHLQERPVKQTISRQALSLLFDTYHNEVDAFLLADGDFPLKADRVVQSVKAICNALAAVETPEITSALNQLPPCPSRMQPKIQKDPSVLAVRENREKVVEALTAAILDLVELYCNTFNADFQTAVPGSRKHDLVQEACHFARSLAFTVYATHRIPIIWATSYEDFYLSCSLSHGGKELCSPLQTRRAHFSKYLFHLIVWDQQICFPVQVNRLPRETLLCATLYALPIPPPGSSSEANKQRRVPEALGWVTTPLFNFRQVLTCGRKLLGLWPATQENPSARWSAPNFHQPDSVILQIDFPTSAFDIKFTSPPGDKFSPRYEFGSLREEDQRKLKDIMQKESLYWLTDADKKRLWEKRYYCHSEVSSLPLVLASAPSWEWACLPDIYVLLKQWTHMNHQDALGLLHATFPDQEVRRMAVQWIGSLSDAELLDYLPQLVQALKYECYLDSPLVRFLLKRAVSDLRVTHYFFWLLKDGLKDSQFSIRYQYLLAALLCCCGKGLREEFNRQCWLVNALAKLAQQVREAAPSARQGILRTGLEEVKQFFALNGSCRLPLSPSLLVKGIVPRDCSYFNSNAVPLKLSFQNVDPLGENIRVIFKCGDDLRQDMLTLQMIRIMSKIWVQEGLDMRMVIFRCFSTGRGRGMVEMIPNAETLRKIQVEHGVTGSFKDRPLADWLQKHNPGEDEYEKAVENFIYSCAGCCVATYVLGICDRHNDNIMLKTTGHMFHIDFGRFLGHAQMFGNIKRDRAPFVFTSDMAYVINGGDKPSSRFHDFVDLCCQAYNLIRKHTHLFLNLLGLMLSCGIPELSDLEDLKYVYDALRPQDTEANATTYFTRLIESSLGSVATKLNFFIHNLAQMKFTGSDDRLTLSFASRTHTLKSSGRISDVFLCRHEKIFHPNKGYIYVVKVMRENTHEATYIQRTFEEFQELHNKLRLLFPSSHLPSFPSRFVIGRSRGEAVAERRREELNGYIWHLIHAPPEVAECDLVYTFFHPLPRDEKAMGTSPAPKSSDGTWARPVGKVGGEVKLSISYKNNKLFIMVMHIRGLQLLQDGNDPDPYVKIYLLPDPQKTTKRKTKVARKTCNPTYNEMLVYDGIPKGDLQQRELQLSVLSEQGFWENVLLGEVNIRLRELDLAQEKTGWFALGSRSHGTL

Question: With `CCc1ccccc1N(CC(=O)Nc1cc(C)cc(C)c1)S(C)(=O)=O` as the compound, how does the EC50 [1] read?
Answer: 0.007 µM

Question: And the EC50 [2]?
Answer: 0.086 µM

Question: What about the CC50 at 72 h [3] of the same compound?
Answer: > 100 µM

Question: Which results are given for `CCCCN1Cc2ccccc2Oc2ccccc2S1(=O)=O`?
Answer: EC50 [4]: 0.38 µM; CC50 at 72 h [5]: > 100 µM

Question: With `CN(C)S(=O)(=O)N1CCCC(CNC(=O)c2cccc(C(F)(F)F)c2)C1` (configuration not stated) as the compound, how does the EC50 [4] read?
Answer: 0.28 µM

Question: What about the CC50 at 72 h [5] of the same compound?
Answer: > 100 µM

Question: What does the source list for `CC(=O)c1cc(O)ccc1O[C@@H]1O[C@H](COC(=O)c2cc(O)c(O)c(O)c2)[C@@H](O)[C@H](OC(=O)c2cc(O)c(O)c(O)c2)[C@H]1O`?
Answer: EC50 [6]: 11.6 µM; EC50 [7]: 20.2 µM; EC50 [8]: 29.2 µM; CC50 [9]: 964 µM

Question: With `CC1CC2=C(NC(=O)NC2c2ccc(O)c(Br)c2)c2ccccc21` (configuration not stated) as the compound, how does the EC50 [10] read?
Answer: 0.098 µM

Question: What about the EC50 [11] of the same compound?
Answer: 0.046 µM

Question: And the selectivity ratio [12]?
Answer: > 510

Question: And the selectivity ratio [13]?
Answer: > 1090

Question: Which EC50 [14] does the source give for `CCc1ccc(NC(=O)COC(=O)c2ccc3ccccc3n2)cc1` here?
Answer: 51.6 µM

Question: What about the CC50 at 48 h [15] of the same compound?
Answer: > 400 µM

Question: With `O=C(Cc1cccs1)Nc1cccc(-c2ccc3nnc(-c4cccnc4)n3n2)c1` as the compound, how does the CC50 [16] read?
Answer: > 50 µM

Question: What about the EC50 [17] of the same compound?
Answer: 0.43 µM

Question: And the EC50 [18]?
Answer: 2.05 µM

Question: What about the EC50 [19] of the same compound?
Answer: 1.77 µM

Question: And the EC50 [20]?
Answer: 1.22 µM

Question: And the EC50 [21]?
Answer: 0.76 µM

Question: And the EC50 [22]?
Answer: 0.05 µM

Question: Which EC50 [14] does the source give for `O=C(CSc1nnnn1-c1ccccc1)NCc1ccccc1` here?
Answer: 46.4 µM

Question: What about the CC50 at 48 h [15] of the same compound?
Answer: > 150 µM

Question: Which results are given for `COc1cccc(OC)c1C(=O)/C=C/c1nc(C)c(C)nc1C`?
Answer: CC50 [23]: 41.5 µM; EC50 [24]: 2.74 µM; EC50 [25]: 3.44 µM; EC50 [26]: 2.41 µM; EC50 [27]: 3.13 µM

Question: Which EC50 [28] does the source give for `OC(CN1CCCCC1)Cn1c2c(c3ccccc31)CCCC2` (configuration not stated) here?
Answer: 35.6 µM

Question: And the EC50 [29]?
Answer: 30.7 µM

Question: And the EC50 [30]?
Answer: 44.7 µM

Question: What about the EC50 [31] of the same compound?
Answer: 39.8 µM

Question: And the CC50 at 48 h [32]?
Answer: > 200 µM

Question: Which CC50 [33] does the source give for `O=C(NC1CCCCCC1)c1cc2c(s1)-c1ccsc1CC2` here?
Answer: > 100 µM

Question: What about the EC50 [34] of the same compound?
Answer: 1.14 µM

Question: What about the EC50 [35] of the same compound?
Answer: 1.03 µM

Question: And the EC50 [36]?
Answer: 0.41 µM

Question: What about the CC50 [37] of the same compound?
Answer: > 100 µM

Question: What about the CC50 [38] of the same compound?
Answer: > 100 µM
